For orientation: inhibition means the relative decrease from the control value, in per cent.

The results in this text go back to publication PMC8041284, “Tunable Methacrylamides for Covalent Ligand Directed Release Chemistry” (Journal of the American Chemical Society, 2021).

The structures appear in SMILES notation.

BTK, sequence (Q06187 402-655 limits assumed): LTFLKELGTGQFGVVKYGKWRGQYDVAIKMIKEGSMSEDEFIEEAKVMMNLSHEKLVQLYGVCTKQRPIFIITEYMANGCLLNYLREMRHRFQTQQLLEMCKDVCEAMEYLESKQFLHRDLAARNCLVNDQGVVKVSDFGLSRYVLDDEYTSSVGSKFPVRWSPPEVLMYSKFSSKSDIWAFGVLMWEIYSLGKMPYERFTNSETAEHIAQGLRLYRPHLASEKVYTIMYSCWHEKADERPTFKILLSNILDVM

One test has as its target BTK (Homo sapiens, UniProt Q06187). Nature of the test: biochemical. The note with it: read-out: BTK inhibition (%).
Turning to `CCCCCCC(=O)O[C@H]1CC[C@H]2[C@@H]3CCC4=CC(=O)CC[C@]4(C)[C@H]3CC[C@]12C` [PCM-0214913], the inhibition at 10 µM is 6.2%.

The same test, now with this note: read-out: BTK inhibition (%), 0.75 uM BTK, […] probe 3l, 15 min preincubation.
With `CCOC(=O)CCC(=O)O[C@H]1[C@H](O[C@@H]2[C@@H](C)[C@H](O[C@H]3C[C@@](C)(OC)[C@@H](O)[C@H](C)O3)[C@@H](C)C(=O)O[C@H](CC)[C@@](C)(O)[C@H](O)[C@@H](C)C(=O)[C@H](C)C[C@@]2(C)O)O[C@H](C)C[C@@H]1N(C)C` [PCM-0214733], the inhibition at 10 µM is -14.8%.

On to `Cc1nc(N)sc1-c1ccnc(Nc2ccc(N3CCOCC3)cc2)n1` [PCM-0095025], for which the inhibition at 10 µM was 57.2%. Still for that read-out and setting: in the case of `C[C@H](CC[C@@]1(O)O[C@H]2C[C@H]3[C@@H]4CC=C5C[C@@H](O[C@@H]6O[C@H](CO)[C@@H](O[C@@H]7O[C@@H](C)[C@H](O)[C@@H](O)[C@H]7O)[C@H](O)[C@H]6O[C@@H]6O[C@@H](C)[C@H](O)[C@@H](O)[C@H]6O)CC[C@]5(C)[C@H]4CC[C@]3(C)[C@H]2[C@@H]1C)CO[C@@H]1O[C@H](CO)[C@@H](O)[C@H](O)[C@H]1O` [PCM-0215060] it was -28%.

As to `COc1cc2c[n+](C)c3c4cc5c(cc4ccc3c2cc1OC)OCO5` [PCM-0216452], the inhibition at 10 µM is 27.8%. The same measure, in the same setting: next, `O=C(O)CCC(=O)Nc1ccc(Br)cn1` [PCM-0215427]: -3.4%. On the same count and under the same terms, next, `N[C@H]1C[C@@H]1c1ccc(-c2cccc(O)c2)cc1` [PCM-0095788]: -1.5%; `CC(=O)Oc1c(C)c(C)c2c(c1C)CC[C@@](C)(CCC[C@H](C)CCC[C@H](C)CCCC(C)C)O2` [PCM-0215944]: 0%; `COC(=O)[C@@]1(C)CC[C@]2(C(=O)O)CC[C@]3(C)C(=CC[C@@H]4[C@@]5(C)C[C@H](O)[C@H](O[C@@H]6OC[C@@H](O[C@@H]7O[C@H](CO)[C@@H](O)[C@H](O)[C@H]7O)[C@H](O)[C@H]6O)[C@@](C)(CO)[C@@H]5CC[C@]43C)[C@@H]2C1` [PCM-0216472]: 2.3%. As for `O=C1CN(/N=C/C=C/c2ccc([N+](=O)[O-])o2)C(=O)N1` [PCM-0214924], the inhibition at 10 µM was -7.8%.

Consider `Cc1cc2c(s1)Nc1ccccc1N=C2N1CCN(C)CC1` [PCM-0064824], for which the inhibition at 10 µM was -8.6%. Still for that read-out and setting: in the case of `C/C(O)=C(\C#N)C(=O)Nc1cc(Br)ccc1Br` [PCM-0215429] it was -1.4%; in that of `CCOC(=O)NC/C=C/c1ccc2ncnc(Nc3ccc(Oc4ccc(C)nc4)c(C)c3)c2c1` [PCM-0095019], -15.9%. Still for that read-out and setting: next, `C[C@H]1O[C@H](O[C@H]2[C@H](O)[C@@H](O)[C@@H](O[C@@H]([C@H](O)[C@@H](O)C=O)[C@H](O)CO)O[C@@H]2CO)[C@H](O)[C@@H](O)[C@@H]1N[C@H]1C=C(CO)[C@@H](O)[C@H](O)[C@H]1O` [PCM-0214720]: -7%.

For the compound `Cc1cccc2c3c(ccc12)C1=C(C(=O)C3=O)[C@@H](C)CO1` [PCM-0216343], the inhibition at 10 µM is 22.4%.

As to `CC(C)(C)c1nc(-c2ccc(NC(=O)Nc3cccc(C(F)(F)F)c3)c3ccccc23)c2c(N)nccn12` [PCM-0216026], the inhibition at 10 µM came out at 79.3%. The same measure, in the same setting: next, `CO/N=C(\C(=O)N[C@@H]1C(=O)N2C(C(=O)O)=C(CSc3nc(C)c(CC(=O)O)s3)CS[C@H]12)c1csc(N)n1` [PCM-0215155]: -2.3%; `O=C(Nc1cc2cc[nH]c2cn1)c1ccccc1` [PCM-0215233]: 0.8%; `Clc1ccc(COC(Cn2ccnc2)c2ccc(Cl)cc2Cl)cc1` (centres unmarked) [PCM-0085902]: 7.8%. Still for that read-out and setting: in the case of `CC(C)C1CCC(C(=O)N[C@H](Cc2ccccc2)C(=O)O)CC1` (some centres unmarked) [PCM-0095239] it was -4.7%; in that of `CC1(C)CC[C@]2(NC(=O)C(C)(F)F)CC[C@]3(C)[C@H](C(=O)C=C4[C@@]5(C)C=C(C#N)C(=O)C(C)(C)[C@@H]5CC[C@]43C)[C@@H]2C1` [PCM-0215505], -10%; in that of `NC(=O)Cc1cccc(C(=O)c2ccccc2)c1N` [PCM-0095009], 11.7%. Turning to `OC[C@@H](O)[C@@H](O)[C@H](O)[C@H](O)CO` [PCM-0094876], the inhibition at 10 µM was -17.1%. On the same count and under the same terms, next, `O=c1cc(-c2ccccc2)oc2cc(O)cc(O)c12` [PCM-0088446]: 34.2%. For the compound `O=CC1OC(=O)c2cc(O)c(O)c(O)c2-c2c(cc(O)c(O)c2O)C(=O)OC1C1OC(=O)c2cc(O)c(O)c(O)c2-c2c(O)c(O)c3oc(=O)c4c(c(O)c(O)c5oc(=O)c2c3c54)-c2c(cc(O)c(O)c2O)C(=O)OCC1O` (centres unmarked) [PCM-0216414], the inhibition at 10 µM was 27%. The same measure, in the same setting: next, `CC(C)OC(=O)C1=CN(C(=O)c2ccc(F)c(F)c2)CC(C)(C)c2c1[nH]c1ccccc21` [PCM-0095387]: 3.4%. Consider `COc1ccccc1OCCN` [PCM-0216626], for which the inhibition at 10 µM is -11.6%. The same measure, in the same setting: in the case of `CN(C)CCC=C1c2ccccc2CCc2ccccc21` [PCM-0064521] it was -22.6%; in that of `NC(=O)CN1CCCC1=O` [PCM-0064964], -16.3%. Regarding `CC1(C)O[C@@H]2[C@@H](CO[C@@]3(COS(N)(=O)=O)OC(C)(C)O[C@@H]23)O1` [PCM-0086260], the inhibition at 10 µM was -15.6%.

On to `O=C(O)C1(Cc2cccc(Nc3nccs3)n2)CCC(Oc2cccc(Cl)c2F)CC1` (centres unmarked) [PCM-0095334], for which the inhibition at 10 µM is 102%. Still for that read-out and setting: in the case of `Cc1ccc2nc(NCCN)c3ncc(C)n3c2c1` [PCM-0215260] it was -16.6%; in that of `c1ccc([C@H]2CN3CCSC3=N2)cc1` [PCM-0065508], 17.9%; in that of `CNC(=O)CN1CCC(Oc2cc3c(Nc4cccc(Cl)c4F)ncnc3cc2OC)CC1` [PCM-0095236], 23.4%. The same measure, in the same setting: next, `COCCOC(=O)C1=C(C)NC(C)=C(C(=O)OC(C)C)C1c1cccc([N+](=O)[O-])c1` (centres unmarked) [PCM-0064753]: 5.4%; `O=C(/C=C/c1cccnc1)c1ccncc1` [PCM-0215906]: -6.9%; `CC[C@H](C)C(=O)O[C@H]1C[C@H](O)C=C2C=C[C@H](C)[C@H](CC[C@@H](O)C[C@@H](O)CC(=O)O)[C@H]21` [PCM-0214717]: -3.1%. Regarding `COc1cc2c(Nc3ccc(NC(=O)c4ccccc4)cc3)ncnc2cc1OCCCN1CCOCC1` [PCM-0094881], the inhibition at 10 µM is 77.9%. Turning to `NNC(=O)c1ccncc1` [PCM-0085769], the inhibition at 10 µM turned out to be 2.3%. Regarding `COc1cc2oc(=O)ccc2c(OC)c1C[C@@H](O)C(C)(C)O` [PCM-0216455], the inhibition at 10 µM was -13.1%. As for `CCNC(=O)C[C@@H]1N=C(c2ccc(Cl)cc2)c2cc(OC)ccc2-n2c(C)nnc21` [PCM-0215230], the inhibition at 10 µM is -20.8%. The same measure, in the same setting: next, `O=C(O)COCCN1CCN([C@H](c2ccccc2)c2ccc(Cl)cc2)CC1` [PCM-0215119]: -6.2%; `COC(=O)C[C@](O)(CCCC(C)(C)O)C(=O)O[C@@H]1C(OC)=C[C@]23CCCN2CCc2cc4c(cc2[C@H]13)OCO4` [PCM-0216341]: 4.6%; `Cc1nn(C)c2nc(NNC(=O)Nc3cc(Cl)nc(Cl)c3)cc(C(C)C)c12` [PCM-0215784]: 54.8%. As to `C[C@@H]1CC[C@]2(C(=O)O[C@@H]3O[C@H](CO)[C@@H](O)[C@H](O)[C@H]3O)CC[C@]3(C)C(=CC[C@@H]4[C@@]5(C)CC[C@H](O)[C@@](C)(CO)[C@@H]5CC[C@]43C)[C@@H]2[C@]1(C)O` [PCM-0216572], the inhibition at 10 µM is -2.3%. Consider `O=C(O)c1ccc2c3c1cccc3c(=O)n1c3ccccc3nc21` [PCM-0215754], for which the inhibition at 10 µM stood at 13.8%. Take `O=C(O)CNC(=O)c1c(O)c2ccccc2n(Cc2ccccc2)c1=O` [PCM-0095405]: the inhibition at 10 µM was -23.3%. Same read-out and setting: in the case of `N#CSc1cc(SC#N)c(N)nc1N` [PCM-0095820] it was 112%; in that of `CCN(CC)c1ccc2c(-c3ccccc3C(=O)O)c3ccc(=[N+](CC)CC)cc-3oc2c1` [PCM-0216592], 85.7%; in that of `CN(C)CCC(c1ccc(Cl)cc1)c1ccccn1` (centres unmarked) [PCM-0064500], 6.9%. On the same count and under the same terms, in the case of `CCn1cc(C(=O)O)c(=O)c2cc(F)c(N3CCNC(C)C3)c(F)c21` (centres unmarked) [PCM-0065465] it was -2.6%. Still for that read-out and setting: in the case of `COC(=O)c1ccc([C@H]2C3Nc4ccccc4C3C[C@H](C(=O)OC)N2C(=O)CCl)cc1` (some centres unmarked) [PCM-0214584] it was 35.5%.

For `NC1(Cc2ccc(Cl)cc2)CCN(c2ncnc3[nH]ccc23)CC1` [PCM-0095516], the inhibition at 10 µM was found to be 13.8%. On the same count and under the same terms, next, `CCCCCCCCCCCC(=O)O` [PCM-0214847]: -69.3%; `COc1cc2c(cc1OC)[C@H]1C[C@@H](OC(=O)[C@@H](N)C(C)C)[C@H](CC(C)C)CN1CC2` [PCM-0216567]: -27%. Regarding `O=C(O)C(=O)O` [PCM-0216287], the inhibition at 10 µM is -10%. On the same count and under the same terms, next, `CC(=O)OCC1=C(C(=O)O)N2C(=O)[C@@H](NC(=O)CSC(=NC(C)C)NC(C)C)[C@H]2SC1` [PCM-0216063]: 4.7%. Turning to `C[C@@H]1[C@H]2c3cc4c(cc3O[C@@]35OCOC3=CC(=O)[C@H](C[C@H]1C)[C@@H]25)OCO4` [PCM-0216310], the inhibition at 10 µM was determined as 33.2%.

Take `O=C(O)[C@H]1CSC(c2nc3ccc(O)cc3s2)=N1` [PCM-0215581]: the inhibition at 10 µM was -16.2%.

Turning to `O=C(NC[C@H](O)CN1CCc2ccccc2C1)c1cc(NC2COC2)ncn1` [PCM-0215447], the inhibition at 10 µM was determined as 1.5%. Same read-out and setting: next, `Cn1cncc1[C@@](N)(c1ccc(Cl)cc1)c1ccc2c(c1)c(-c1cccc(Cl)c1)cc(=O)n2C` [PCM-0095125]: 17.9%; `CCOC(=O)N1CCN(c2ccc(OC[C@H]3CO[C@](Cn4ccnc4)(c4ccc(Cl)cc4Cl)O3)cc2)CC1` [PCM-0216072]: 8.5%; `O=C1C[C@@H](c2ccc(O[C@@H]3O[C@H](CO)[C@@H](O)[C@H](O)[C@H]3O)cc2)Oc2cc(O)ccc21` [PCM-0214980]: 10.9%. As to `COc1cc(C=O)ccc1OC(C)=O` [PCM-0215077], the inhibition at 10 µM was -10.1%. As to `Cc1ccccc1-c1cc(N2CCN(C)CC2)ncc1N(C)C(=O)C(C)(C)c1cc(C(F)(F)F)cc(C(F)(F)F)c1` [PCM-0215667], the inhibition at 10 µM came to 2.6%.
